Source: patent US20110144160A1, “Antagonists of Prostaglandin D2 Receptors” (Amira Pharmaceuticals, Inc., priority 2008, published 2011)

How the values were obtained:
human DP2 receptor = target: T1, human DP2 receptor (Homo sapiens, UniProt Q9Y5Y4); assay: DP2/CRTH2 binding assay ([3H]PGD2 radioligand); settings: membranes of HEK293 cells expressing recombinant human DP2, 1 nM [3H]PGD2; read-out: hDP2
T1 construct: expressed in transfected cells
T1 sequence (Q9Y5Y4 1-395): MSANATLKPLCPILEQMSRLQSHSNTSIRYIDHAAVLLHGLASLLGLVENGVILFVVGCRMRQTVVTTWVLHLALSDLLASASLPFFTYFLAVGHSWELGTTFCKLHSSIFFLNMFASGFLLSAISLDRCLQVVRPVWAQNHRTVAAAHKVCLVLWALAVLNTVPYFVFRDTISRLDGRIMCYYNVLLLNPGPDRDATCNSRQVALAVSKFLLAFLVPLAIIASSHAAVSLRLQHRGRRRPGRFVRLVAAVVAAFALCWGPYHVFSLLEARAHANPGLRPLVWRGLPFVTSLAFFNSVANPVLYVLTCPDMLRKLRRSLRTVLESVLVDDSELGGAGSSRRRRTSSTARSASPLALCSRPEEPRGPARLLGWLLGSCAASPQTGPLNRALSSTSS
Method in brief: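 HEK293 membranes with stable recombinant human DP2, incubated with 1 nM [3H]PGD2 and compound 60 min at room temperature in pH 7.4 HEPES/MnCl2/EDTA buffer, with or without 0.2% human serum albumin.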

human DP1 receptor = target: T2, human DP1 receptor (Homo sapiens, UniProt Q13258); assay: DP1 binding assay ([3H]BWA868C radioligand); settings: human platelet membranes, 2 nM [3H]BWA868C; read-out: hDP1
T2 construct: tissue Biological Specialty Corporation; host or cells: human platelets, membrane preparation
T2 sequence (Q13258 1-359): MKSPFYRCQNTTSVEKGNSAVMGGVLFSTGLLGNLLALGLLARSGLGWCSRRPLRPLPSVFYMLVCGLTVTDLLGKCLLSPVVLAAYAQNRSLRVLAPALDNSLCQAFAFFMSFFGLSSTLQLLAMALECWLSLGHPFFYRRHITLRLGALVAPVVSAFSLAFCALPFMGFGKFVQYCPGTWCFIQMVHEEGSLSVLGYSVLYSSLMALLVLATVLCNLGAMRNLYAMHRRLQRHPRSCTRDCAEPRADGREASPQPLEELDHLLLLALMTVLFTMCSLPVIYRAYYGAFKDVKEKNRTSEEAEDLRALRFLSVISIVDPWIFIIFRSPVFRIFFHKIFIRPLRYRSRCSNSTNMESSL
Method: The ability of a compound to bind to the human DP1 receptor was evaluated via a radioligand membrane binding assay using the DP1 selective synthetic ligand [^3H]BWA868C. Packed human platelets (Biological Specialty Corporation), were resuspended in 6 volumes of Hepes/HBSS buffer (10 mM Hepes, 1 mM DTT in Hanks Balanced Salt Solution (HBSS), lysed and centrifuged at 75,000×g to pellet the membranes. Membranes were resuspended in Hepes/HBSS buffer to approximately 12 mg protein/ml. Membranes (20 μg protein/well) are incubated in 96-well plates with 2 nM [^3H]BWA868C and test compound in Assay Buffer (50 mM Hepes, 10 mM MnCl2, 1 mM EDTA, plus or minus 0.2% human serum albumin, pH 7.4) for 60 minutes at room temperature. The reactions are terminated by rapid filtration through Whatman GF/C glass fibre filter plates. The filter plates were pre-soaked in 0.33% polethylenimine for 30 minutes at room temperature then washed in Wash Buffer (50 mM Hepes, 0.5 M NaCl pH 7.4) prior to harvesting. After harvesting, the filter plates are washed 3 times with 1 ml cold Wash Buffer then dried. Scintillant is then added to the plates and the radioactivity retained on the filters is determined on a Packard TopCount (Perkin Elmer). Specific binding is determined as total radioactive binding minus non-specific binding in the presence of 10 μM BW A868C. IC50s were determined using GraphPad prism analysis of drug titration curves.

Row | IC50 (human DP2 receptor) | IC50 (human DP1 receptor) | SMILES
1 | < 300 nM | < 300 nM | CC(C)(C)SCc1cc(NC(=O)C(C)(C)C)ccc1Oc1cc(CC(=O)O)ccc1O [Compound 75, {3-[2-tert-Butylsulfanylmethyl-4-(2,2-dimethyl-propionylamino)-phenoxy]-4-hydroxy-phenyl}-acetic acid]
2 | < 300 nM | 300 to 1000 nM | COc1ccc(CC(=O)O)cc1Oc1ccc(NC(=O)c2ccncc2)cc1CSCC(F)(F)F [Compound 71, {4-methoxy-3-[4-[(pyridine-4-carbonyl)-amino]-2-(2,2,2-trifluoro-ethylsulfanylmethyl)-phenoxy]-phenyl}-acetic acid]
3 | < 300 nM | < 300 nM | COc1ccc(CC(=O)O)cc1Oc1ccc(NC(=O)C(C)(C)C)cc1C[S+]([O-])C(C)(C)C (centres unmarked) [Compound 73, {3-[4-(2,2-Dimethyl-propionylamino)-2-(2-methyl-propane-2-sulfinylmethyl)-phenoxy]-4-methoxy-phenyl}-acetic acid]

Row | SMILES | IC50 (human DP2 receptor) | IC50 (human DP1 receptor)
4 | COc1ccc(CC(=O)O[C@@H]2O[C@@H](C(=O)O)[C@H](O)[C@@H](O)[C@@H]2O)cc1Oc1ccc(NC(=O)C(C)(C)C)cc1CSC(C)(C)C [Compound 77, (2R,3R,4R,5S,6S)-6-(2-{3-[2-tert-Butylsulfanylmethyl-4-(2,2-dimethyl-propionylamino)-phenoxy]-4-methoxy-phenyl}-acetoxy)-3,4,5-trihydroxy-tetrahydro-pyran-2-carboxylic acid] | < 300 nM | < 300 nM
